Assay: Human HepG2 cell viability assay in 384 well format
Type: toxicity, cell-based
Design: dose 125 nL, time 70.5 hour; cytotoxicity at 70.5 h: concentration not given beside the values
Details: HepG2 cells, read-out: Inhibition

Compound	cytotoxicity at 70.5 h [%]
CCc1nnc(CN2CCC(N3CCN(CC)C3=O)CC2)o1	-16.5
Cc1nc(CN2CCN(C(=O)c3sccc3C)CC2)cs1	-11.5
COc1ccc(CCC(=O)N2CCCCC2Cn2cccn2)cc1F (configuration not stated)	-7.2
CCCn1[nH]cc/c1=N\C(=O)CN1CCc2cnc(C(C)C)nc2C1	-3.5
CC(Cn1cccn1)NC(=O)NCc1ccc(S(C)(=O)=O)cc1 (configuration not stated)	11.7
COc1ccc(C(=O)N(C)Cc2nnc3ccccn23)c(OC)c1OC	-11.4
Cn1ccnc1CN1CCN(CC(O)c2ccc(F)cc2)CC1 (configuration not stated)	-3.86
Nc1nc(CN2CCOC(Cn3cccn3)C2)nc2ccccc12 (configuration not stated)	-11.8
CC(=O)Nc1nc(CN2CCOC(Cn3cccn3)C2)cs1 (configuration not stated)	-5.08
Cc1ccc(C(=O)NC2CCN(C(=O)NCc3ccccn3)CC2)o1	-8.93
CCN1CCN(C2CCN(Cc3nnc(C4CC4)o3)CC2)C1=O	12.8
Cc1cnn(CC2CCCN2C(=O)c2n[nH]c(=O)c3ccccc23)c1 (configuration not stated)	-7.98
O=C(CCc1ccc(F)c(F)c1)N1CCCCC1Cn1cccn1 (configuration not stated)	-7.69
O=C(CCc1ccsc1)N1CCCCC1Cn1cccn1 (configuration not stated)	-9.96
CC(C)c1ccc(C(O)CN2CCN(Cc3nccn3C)CC2)cc1 (configuration not stated)	-3.6
CN(Cc1ccc(-n2cccn2)cc1)CC1CCCN1c1cccnn1 (configuration not stated)	-10.7
CCc1n[nH]c(C2CN(C(=O)c3ccc4c(c3)CCCC4)CCO2)n1 (configuration not stated)	-8.34
CCc1n[nH]c(C2CN(C(=O)c3ccc4c(c3)CCC4)CCO2)n1 (configuration not stated)	-2.27
Cc1cnn(CC2CN(Cc3nc4ccccc4c(=O)[nH]3)CCO2)c1 (configuration not stated)	-4.67
Cc1cnn(CC2CN(CCCc3nc4ccccc4o3)CCO2)c1 (configuration not stated)	-0.695
O=C(NCCn1ccnc1)NCC(c1ccco1)N1CCCC1 (configuration not stated)	9.47
Cc1cnn(CC2CCCN2C(=O)c2csc(C(C)C)n2)c1 (configuration not stated)	17.5
O=C(CNCCn1cccn1)NCC1(c2ccccc2)CCCC1	0.609
O=C(CNCCn1cccn1)NCC1(c2ccccc2)CCOCC1	-7.33

Compound	cytotoxicity at 70.5 h [%]
c1ccc2oc(CCCN3CCOC(Cn4cncn4)C3)nc2c1 (configuration not stated)	14.6
O=C(NCCNc1ccc(C(F)(F)F)cn1)c1ccc(Br)cc1	1.55
O=C(NCCNc1ccc(C(F)(F)F)cn1)c1ccc(F)cc1Cl	-3.01
O=C(NCCNc1ccc(C(F)(F)F)cn1)c1ccc(Cl)cc1F	1.38
CCn1cc(NC(=O)NCCN2CCc3ccccc3C2)cn1	4.14
CCN1CC(C(=O)NCc2cccnc2-n2cccn2)CC1=O (configuration not stated)	-7.76
O=C(CCn1cncn1)NCC(c1ccco1)N1CCCC1 (configuration not stated)	-4.48
O=C(CCc1ccsc1)N1CCC(N2CCNC2=O)CC1	3.98
CCc1nc(C2CCCN(C(=O)c3ccc(F)cc3)C2)no1 (configuration not stated)	-0.043
Cc1nc2c(c(C)c1CC(=O)NCc1ccccc1F)c(=O)[nH]n2C	-7.35
Cc1nc2c(c(C)c1CC(=O)NCc1cccs1)c(=O)[nH]n2C	-1.43
Cc1cnn(CC2CCCN2C(=O)c2csc(C3CC3)n2)c1 (configuration not stated)	-0.994
CCc1nc(C2CCCN(C(=O)c3ccc(O)nc3)C2)no1 (configuration not stated)	3.29
CCc1nc(C2CCCN(C(=O)NCCOC)C2)no1 (configuration not stated)	21.2
CCn1c(C)nnc1CN(C)C1CCN(CC2CCC2)C1 (configuration not stated)	26.1
COc1ccsc1C(=O)N1CCCN(Cc2cscn2)CC1	-5.36
CC(=O)N(Cc1ncc(C)o1)C1CCN(Cc2ccccc2F)C1 (configuration not stated)	-2.68
CC(CNC(=O)Nc1cn[nH]c1)N1CCCC1 (configuration not stated)	2.24
Cc1nc(C)n(CC2CCCN(CC3CCCCC3)C2)n1 (configuration not stated)	-1.64
COc1ccnc(N2CCN(C(=O)Cc3ccn(C(C)C)n3)CC2)n1	-5.11
Cc1ccsc1C(=O)N1CCCN(Cc2cscn2)CC1	-2.76
CCc1nc(C2CCCN(C(=O)c3c(C)noc3C)C2)no1 (configuration not stated)	20.6
Cc1nc(C)n(CC2CCCN2CCC(=O)N2CCCCC2)n1 (configuration not stated)	-5.35
Cc1nc(C)n(CC2CCCN(CC(=O)N3CCCC3)C2)n1 (configuration not stated)	-4.82

Compound	cytotoxicity at 70.5 h [%]
O=C(NCC(c1ccccc1)N1CCOCC1)Nc1cn[nH]c1 (configuration not stated)	1.36
COc1ccnc(N2CCN(C(=O)Cc3csc(C)n3)CC2)n1	1.2
Cc1nnc(C2Cc3ccccc3CN2Cc2nc(C(C)C)no2)o1 (configuration not stated)	1.77
CCn1cnnc1CNC(=O)N1CCN(C(C)C)CC1	26
Cc1nc(C)n(CC2CCCN(CCC(=O)NC3CCCCC3)C2)n1 (configuration not stated)	-3.01
COc1ccc(CC(=O)N2CCCCC2Cn2cc(C)cn2)cc1F (configuration not stated)	2.82
O=C(c1sccc1C1CC1)N1CCCN(Cc2cscn2)CC1	-0.238
COc1ccc(CC(=O)N2CCCC2Cn2cc(C)cn2)c(OC)c1 (configuration not stated)	-0.475
Cc1cnn(CC2CCCN2C(=O)CCc2ccc3c(c2)OCO3)c1 (configuration not stated)	20.8
CCc1ncncc1C(=O)NC1CCc2nc(C)cn2C1 (configuration not stated)	-1.22
Cc1cn2c(n1)CCC(NC(=O)c1csc(C(C)C)n1)C2 (configuration not stated)	-0.273
CCc1nc(C2CCCN(C(=O)C(C)(C)NS(C)(=O)=O)C2)no1 (configuration not stated)	0.741
O=S(=O)(CCCN1CCCC1Cn1cccn1)c1ccccc1 (configuration not stated)	-11.1
CCn1cc(NC(=O)CCc2ccc3c(c2)OCCCO3)cn1	10.1
CCS(=O)(=O)CCN1CCC(N(C)Cc2noc(C(C)C)n2)C1 (configuration not stated)	-5.52
COc1ccccc1OCC(=O)NS(=O)(=O)c1ccc(C)s1	-4.78
Cc1ccc(-c2nc(CN3CCCC(Cn4cncn4)C3)no2)cc1 (configuration not stated)	27.5
CCCc1nc(C)c(C(=O)NCCN2CCN(CC)CC2)s1	-5.5
CN(C)c1cc(C(=O)N2CCCN(Cc3cscn3)CC2)ccn1	-8.49
CCC(O)CN1CCN(C(=O)c2sccc2OC)CC1 (configuration not stated)	0.647
O=S(=O)(NCCN1CCCCC1Cn1cncn1)c1ccccc1 (configuration not stated)	-3.24
CCN(Cc1cccc2c1OCO2)C(=O)C(C)c1cccnc1 (configuration not stated)	1.7
Cc1cc(CN(C)C(=O)NCC(C)N2CCc3ccccc32)no1 (configuration not stated)	-2.66
CN(Cc1cccc(F)c1)C(=O)CN1CCOC(Cn2cccn2)C1 (configuration not stated)	-2.5

Compound	cytotoxicity at 70.5 h [%]
CC(=O)N1CCN(C(=O)CN2CCc3c(ncn3C3CC3)C2)CC1	6.66
OCC1CCCN1c1cc(NCc2ccc(Cl)s2)ncn1 (configuration not stated)	-2.35
CC(=O)N(Cc1noc(C)n1)C1CCN(Cc2ccon2)C1 (configuration not stated)	37.1
O=C(NCc1csc(Br)c1)c1ccncc1	-16.8
CC(C)c1nnc(NC(=O)NCc2ccnc(N(C)C)c2)s1	-19.1
Cc1cnn(C2CCCN(C(=O)Cc3cn4ccccc4n3)C2)c1 (configuration not stated)	-12.4
Cn1ccc(CN2CCC(CO)CC2)cc1=O	-9.02
Cc1cn2nc(N3CCCC3Cn3nc(C)cc3C)sc2n1 (configuration not stated)	-7.66
Cc1nn(C)c(C)c1C1CCCN1Cc1nc(C)c2ccccc2n1 (configuration not stated)	5.7
O=C(CN1CCc2c(ncn2C2CC2)C1)NC1CC1	-23.8
CCc1n[nH]c(C2CN(C(=O)CCc3cccs3)CCO2)n1 (configuration not stated)	13.9
Cc1ncc(CN(C)CC2CCCN2c2cccnn2)s1 (configuration not stated)	8.83
c1cnnc(N2CCCC2CNCc2cnc(N3CCCC3)nc2)c1 (configuration not stated)	-7.83
c1ccc(Cn2cc(CNC3CCc4ncnn4C3)cn2)cc1 (configuration not stated)	-7.61
O=C(c1csc(Br)c1)N1CCCC(n2ccnc2)C1 (configuration not stated)	12.4
Cc1csc(C2CCCCN2C(=O)CN(C)Cc2ccccc2)n1 (configuration not stated)	-8.36
COc1ccc(CN2CCCC(Cn3nc(C)nc3C)C2)cc1F (configuration not stated)	-8.47
Cc1oc(C)c(C(=O)NCc2cccc(NC(=O)CN(C)C)c2)c1C	-8.3
CC(=O)N(Cc1noc(C)n1)C1CCN(Cc2ccccc2C#N)C1 (configuration not stated)	-5.45
O=C(c1ccccc1OCC1CC1)N1CCCC(n2ccnc2)C1 (configuration not stated)	-9.12
Cc1ccc(N2CCCC(NCc3ccc(C)o3)C2)nn1 (configuration not stated)	-7.71
CCCn1[nH]cc/c1=N\C(=O)CN1CCc2c(nc(C(C)C)n2C)C1	18
Cc1cccc(-n2cc(C(=O)N3CCCC(n4ccnc4)C3)nn2)c1 (configuration not stated)	15.2
CC(C)c1nc2c(n1C)CCN(CC(=O)Nc1ccc(Cl)cn1)C2	-14.9

Compound	cytotoxicity at 70.5 h [%]
COc1ccc(CC(=O)N(C)Cc2nnc3ccccn23)cc1	-17.4
Cc1cccc(-n2cc(C(=O)N3CCCC(n4cccn4)C3)nn2)c1 (configuration not stated)	-13.8
Cc1cc(CN2CCN(C(=O)c3sccc3C3CC3)CC2)on1	-13.6
O=C1NCCN1C1CCN(CCc2cccs2)CC1	-11.4
CCN(Cc1nc2c(cnn2C)c(=O)[nH]1)Cc1cccs1	-7.33
CCc1ccc(OCC(O)CN2CCN(S(C)(=O)=O)CC2)cc1 (configuration not stated)	-5.82
CC(Cn1cccn1)NC(=O)CCc1ccc(S(N)(=O)=O)cc1 (configuration not stated)	-15.1
COc1ccc(C(=O)NCCc2nnc3ccccn23)c(OC)c1	8
Cc1cnn(CC2CCCN2C(=O)c2cc3ccccc3[nH]2)c1 (configuration not stated)	8.1
O=C(CCc1cccs1)N1CCCCC1Cn1cccn1 (configuration not stated)	-5.08
COc1ccc(CNC(=O)NC(C)Cn2cccn2)cc1O (configuration not stated)	-16.1
CCc1n[nH]c(C2CN(C(=O)c3csnn3)CCO2)n1 (configuration not stated)	-18.6
CCN1CCN(C2CCN(Cc3ncc(C(C)(C)C)o3)CC2)C1=O	-8.55
COc1c(CNCC(O)c2cccc(F)c2)c(C(C)C)nn1C (configuration not stated)	2.55
CC(=O)N(Cc1noc(C)n1)C1CCN(Cc2cc(C)on2)C1 (configuration not stated)	-2.83
CCc1nc(CN2CCCC(NCc3ncc(C(C)(C)C)o3)C2)no1 (configuration not stated)	8.8
CCc1nc(CN2CCCC(NCc3nnc(C4CC4)o3)C2)no1 (configuration not stated)	0.376
CC(=O)N(Cc1ncc(C)o1)C1CCN(Cc2ccncc2Cl)C1 (configuration not stated)	-1.73
CC(=O)N(Cc1ncc(C)o1)C1CCN(Cc2noc(C)n2)C1 (configuration not stated)	-5.31
CN(C)c1cc(CNC(=O)c2ccc(=O)[nH]n2)ccn1	1.83
O=C(NCCNc1ccc(C(F)(F)F)cn1)c1ccc(Br)cc1F	17.1

From ChEMBL document CHEMBL3507680, “University of Dundee, Gates Library screen for HepG2 cell viability”
